≈ marks a conversion by molar mass, not a printed value. Read-outs that look alike come from different tables or passages of the source.
Key:
hDHFR = hDHFR (Homo sapiens (Human), UniProt P00374); assay: hDHFR enzyme inhibition assay; type: biochemical
Procedure: hDHFR: The gene for hDHFR was amplified using PCR from cDNA obtained from ATCC. The gene was inserted in a pET41 vector with a C-terminal histidine tag for affinity chromatography. The resulting construct was verified by sequencing. The hDHFR protein was expressed in E. coli and purified using a nickel affinity column.
(§1) Enzyme and inhibitor were allowed to incubate for 5 min before adding dihydrofolate to initiate the reaction. Enzyme assays were performed at least four times. IC50 values and their standard deviations were calculated in the presence of varying concentrations of inhibitor near the IC50 concentration.
(§2) Enzyme inhibition assays were performed by monitoring the rate of NADPH oxidation by the DHFR enzyme at an absorbance of 340 nm. Assays were performed in the presence of saturating concentrations of NADPH and initiated with dihydrofolate. All assays were completed at 25° C. in a buffer containing 20 mM TES pH 7.0, 50 mM KCl, 10 mM 2-mercaptoethanol, 0.5 mM EDTA and 1 mg/mL BSA. Inhibition was measured at least three times with inhibitor concentrations near the IC50 value and the average IC50 value is reported with a standard deviation.

CgDHFR = CgDHFR (Candida glabrata (strain ATCC 2001 / BCRC 20586 / JCM 3761 / NBRC 0622 / NRRL Y-65 / CBS 138) (Yeast) (Nakaseomyces glabratus), UniProt Q6FPH0); assay: biochemical; conditions: for Selectivity: Table 7, hDHFR vs CgDHFR
From the text: CgDHFR: The gene coding CgDHFR was amplified by PCR from C. glabrata genomic DNA obtained from ATCC. The gene was inserted in a pET41 vector that includes a C-terminal histidine tag for nickel affinity chromatography. E. coli cells were transformed and the resulting plasmid was verified by sequencing. The protein was expressed in E. coli BL21(DE3) cells with isopropyl β-D-thiogalactoside induction. Following growth, the cells were lysed with BugBuster (Novagen) and centrifuged; the supernatant was loaded on a Ni-NTA column. The column was washed with 20 mM Tris (pH 8.0)/0.4 M NaCl and the protein was eluted using a gradient of 20 mM Tris (pH 8.0), 0.3 M NaCl, 20% glycerol, 0.1 mM EDTA, 2 mM DTT, 250 mM imidazole. Fractions containing CgDHFR were identified by SDS-PAGE, combined and desalted using a PD-10 column with a buffer containing 20 mM Tris pH 8.0, 20% glycerol, 0.1 mM EDTA and 2 mM DTT. The protein was concentrated to 13 mg/mL.
as §1

C. glabrata = assay: Antifungal assay (MIC, Alamar Blue); type: cell-based, Candida glabrata; conditions: for MIC: Nakaseomyces glabratus; for antifungal properties against C. glabrata: result in words
Procedure: Antifungal assays were performed using C. glabrata as a suspension in 50% glycerol at −78° C. For susceptibility testing, a streak of stock culture was made on SDA agar and grown at 30° C. for 48 h. One pure colony of the test organism was recovered from the plate, suspended in appropriate media and grown in a 5 mL shake flask culture. A sample of the shake flask culture was diluted to 1×10^5 cells/mL in media and added to 96-well test plates (100 μL per well) containing test compounds dispensed in DMSO (1 μL). Amphotericin and ketoconazole were used as controls. After an incubation period determined from the strain specific doubling time, Alamar Blue (10 μL) was added, allowed to incubate; each well was scored for dye reduction.
Several representative compounds were also evaluated in thymidine-depleted media. It has been shown that high levels of thymidine interfere with accurate susceptibility testing of antifolates. To compensate for this, antifolates are frequently evaluated in a controlled minimal media with a low thymidine concentration. […] In addition, the compounds were also evaluated for mammalian cell toxicity using MCF-10 and HepG2 cell lines. Cellular selectivity is reported as the IC50 value for the MCF-10 human cell line divided by the MIC value (μg/mL) (Table 8).

Measured solubility = type: physicochemical; conditions: in 200 mcg/mL HPMC and 0.2% DMSO
ChDHFR-TS = ChDHFR-TS (Cryptosporidium hominis, UniProt Q27552); assay: ChDHFR enzyme inhibition assay; type: biochemical
Procedure: as §1
Compounds were evaluated in spectrophotometric enzyme assays using ChDHFR-TS and hDHFR. Inhibition constants (IC50) were measured (see Table 4). […] The compound abbreviations in Table 4 refer to the following compounds: […]

TgDHFR = TgDHFR (Toxoplasma gondii, UniProt Q07422, DEL43-70); assay: TgDHFR enzyme inhibition assay; type: biochemical
Procedure: These residues were removed, leaving a five residue loop region characteristic of several other species of DHFR.
as §1

S. aureus DHFR = S. aureus DHFR (Staphylococcus aureus, UniProt P0A017); type: biochemical
Procedure: as §2

S. pyogenes DHFR = S. pyogenes DHFR (Streptococcus pyogenes, UniProt Q9A091); assay: S. pyogenes DHFR enzyme inhibition assay; type: biochemical
Procedure: as §2

S. aureus 13709 (MRSA) = assay: Antibacterial MIC, broth microdilution with Alamar Blue; type: cell-based, Staphylococcus aureus
Procedure: (§3) For susceptibility testing, 10 μL of glycerol stock was suspended in a 10 mL shake flask culture of chemically defined Isosensitest broth (Oxoid) supplemented with 2% w/v glucose. A sample of the shake flask culture was diluted to 1×10^6 cells/mL in media and added to 96-well test plates (100 μL per well) containing test compounds dispensed in DMSO (2 μL). After an incubation period (30° C.) determined from the strain specific doubling time, a 0.03% w/v aqueous solution of resazurin (10 μL) was added and the plates were allowed to incubate; each well was then scored for dye reduction.

Streptococcus pyogenes = assay: as above; type: cell-based
Procedure: as §3

MCF-10 cells = assay: Mammalian cell toxicity, MCF-10; type: cell-based, human; conditions: cytotoxicity
Procedure: (§4) Adherent cell lines were maintained in Eagle's Minimal Essential Media (Sigma-Aldrich, St. Louis, Mo., USA) with 2 mM glutamine and Earle's Balanced Salt Solution (HyClone, Logan, Utah, USA) adjusted to contain 1.5 g/L sodium bicarbonate, 0.1 mM non-essential amino acids, 1 mM sodium pyruvate and 10% fetal calf serum. Fetal calf serum used in these assays was lot matched throughout. […] Toxicity assays were conducted between passages 10-20. Target compound toxicity was measured by incubating the test compound with the cells for 4 h, washing the cells and finally treating the cells with Alamar Blue. After 12-24 h, the fluorescence of the reduced dye was measured. Fluorescence intensity as a function of test compound concentration was fit to the Fermi equation, using non-linear least squares regression analysis, to estimate IC50 values.

HepG2 cells = assay: Mammalian cell toxicity, HepG2; type: cell-based; conditions: cytotoxicity, Table 6
Procedure: as §4

mammalian cell lines = conditions: result in words
[1] = Table 7, read-out: IC50 (hDHFR)
[2] = Table 7, read-out: IC50 (CgDHFR)
[3] = C. glabrata, Inact: not active at 2 mM (~600 μg/mL), read-out: Antifungal activity MIC
[4] = Table 4, read-out: IC50 (ChDHFR)
[5] = average of at least three measurements

hDHFR, sequence (P00374 whole entry): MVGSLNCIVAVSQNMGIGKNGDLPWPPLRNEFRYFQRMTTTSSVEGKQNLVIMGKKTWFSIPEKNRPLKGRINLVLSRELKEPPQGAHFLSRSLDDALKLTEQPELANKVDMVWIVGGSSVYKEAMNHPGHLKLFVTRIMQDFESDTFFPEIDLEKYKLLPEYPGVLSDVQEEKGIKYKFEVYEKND
TgDHFR, sequence (Q07422 71-250, added parts left off, stated change not applied): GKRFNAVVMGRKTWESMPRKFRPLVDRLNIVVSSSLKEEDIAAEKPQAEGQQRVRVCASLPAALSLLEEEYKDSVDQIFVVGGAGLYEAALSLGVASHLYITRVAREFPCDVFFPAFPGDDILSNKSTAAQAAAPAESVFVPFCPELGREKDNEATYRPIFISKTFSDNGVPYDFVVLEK
ChDHFR-TS, sequence (Q27552 1-521): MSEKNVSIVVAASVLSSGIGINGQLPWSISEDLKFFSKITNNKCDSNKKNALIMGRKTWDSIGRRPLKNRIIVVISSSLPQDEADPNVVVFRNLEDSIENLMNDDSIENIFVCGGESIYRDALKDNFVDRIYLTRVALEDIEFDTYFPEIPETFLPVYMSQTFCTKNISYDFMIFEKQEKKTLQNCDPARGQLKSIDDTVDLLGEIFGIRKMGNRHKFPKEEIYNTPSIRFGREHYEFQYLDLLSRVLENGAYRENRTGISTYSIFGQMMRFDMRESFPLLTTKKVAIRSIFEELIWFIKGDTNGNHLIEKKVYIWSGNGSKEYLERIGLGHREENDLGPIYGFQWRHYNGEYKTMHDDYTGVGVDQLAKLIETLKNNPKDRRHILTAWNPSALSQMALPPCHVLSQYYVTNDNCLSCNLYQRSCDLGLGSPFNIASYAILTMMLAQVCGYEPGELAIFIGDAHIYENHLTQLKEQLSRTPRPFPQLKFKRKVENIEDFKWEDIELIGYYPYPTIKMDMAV
CgDHFR, sequence (Q6FPH0 1-217): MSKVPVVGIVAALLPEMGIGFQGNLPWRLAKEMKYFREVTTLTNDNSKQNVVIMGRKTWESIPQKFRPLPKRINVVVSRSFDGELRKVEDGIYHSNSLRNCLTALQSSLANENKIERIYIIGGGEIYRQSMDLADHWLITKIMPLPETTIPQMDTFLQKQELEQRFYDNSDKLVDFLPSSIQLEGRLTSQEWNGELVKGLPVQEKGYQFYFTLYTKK
S. pyogenes DHFR, sequence (Q9A091 1-165): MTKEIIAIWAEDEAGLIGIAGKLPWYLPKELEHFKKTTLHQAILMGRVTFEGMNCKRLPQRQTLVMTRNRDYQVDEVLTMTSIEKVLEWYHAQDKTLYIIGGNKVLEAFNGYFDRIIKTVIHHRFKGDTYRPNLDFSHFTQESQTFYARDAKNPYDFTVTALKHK

SMILES: CCc1nc(N)nc(N)c1C#CC(C)c1cc(OC)cc(N2CCOCC2)c1 (stereo not drawn) [Compound 153]
- IC50 (hDHFR; [1]): 250 ± 4 nM
- Selectivity (CgDHFR): 11 ± 1
- IC50 (CgDHFR; [2]): 22 ± 2 nM
- MIC (Cg) (C. glabrata; C. glabrata, YM media): 12 µg/mL (≈ 31.5 µM)
- Solubility (Measured solubility): 80 µg/mL (≈ 210 µM)

SMILES: COc1cc(CC#Cc2c(C)nc(N)nc2N)cc(OC)c1OC [Compound 5, 6-methyl-5-[3-(3,4,5-trimethoxyphenyl)prop-1-yn-1-yl]pyrimidine-2,4-diamine]
- IC50 (ChDHFR-TS; IC50 against ChDHFR): < 100000 nM
- IC50 (hDHFR; Table 3, read-out: hDHFR IC50): 400 nM
- IC50 (TgDHFR): < 100000 nM
- IC50 (CgDHFR; IC50 against CgDHFR): ≤ 25 nM
- IC50 (CgDHFR; Table 3, read-out: CgDHFR IC50): 17 nM
- MIC (C. glabrata; [3]): 20 µg/mL (≈ 60.9 µM)
- antifungal properties against C. glabrata (C. glabrata): exhibited antifungal properties

SMILES: COc1cc(-c2ccccc2)cc(C(C)C#Cc2c(C)nc(N)nc2N)c1 (racemic) [Compound 139, 5-[3-(5-methoxy-biphenyl-3-yl)but-1-yn-1-yl]-6-methylpyrimidine-2,4-diamine]
- IC50 (ChDHFR-TS; [4]): 1.8 nM
- MIC (C. glabrata; C. glabrata, YM media, read-out: MIC (Cg)): 11 µg/mL (≈ 30.7 µM)
- Solubility (Measured solubility; aqueous with cosolvent or surfactant or cyclodextrin, kinetic from dmso stock, read-out: Solubility): 20 µg/mL (≈ 55.8 µM)

SMILES: COc1cc(C(C)C#Cc2c(C)nc(N)nc2N)cc(N2CCNCC2)c1 (stereo not drawn) [Compound 159]
- IC50 (hDHFR; [1]): 270 ± 46 nM
- Selectivity (CgDHFR): 1.9 ± 0.4
- IC50 (CgDHFR; [2]): 143 ± 10 nM
- MIC (Cg) (C. glabrata; C. glabrata, YM media): Inact
- Solubility (Measured solubility): 60 µg/mL (≈ 164 µM)

SMILES: COc1cc(C(C)C#Cc2c(C)nc(N)nc2N)cc(N2CCOCC2)c1 (stereo not drawn) [Compound 152]
- IC50 (hDHFR; Table 5, average of at least three measurements, read-out: IC50 human): 400 ± 40 nM
- IC50 (hDHFR; [1]): 400 ± 40 nM
- Selectivity (CgDHFR): 20 ± 4
- IC50 (CgDHFR; [2]): 20 ± 3 nM
- MIC (Cg) (C. glabrata; C. glabrata, YM media): 12 µg/mL (≈ 32.7 µM)
- Selectivity Index (C. glabrata; IC50 (MCF-10)/MIC (C. glabrata)): 330
- MIC C. glabrata (C. glabrata; IsoSensitest media supplemented with 2% glucose (thymidine-depleted)): 1.4 µg/mL (≈ 3.81 µM)
- Selectivity (h/Sa) (S. aureus DHFR; IC50 (human)/IC50 (pathogen)): 14
- IC50 (S. aureus DHFR; [5]): 29 ± 2 nM
- Selectivity (h/Sp) (S. pyogenes DHFR; IC50 (human)/IC50 (pathogen)): 15
- IC50 (S. pyogenes DHFR; [5]): 26 ± 4 nM
- Selectivity MRSA (S. aureus 13709 (MRSA); IC50 (MCF10)/MIC (pathogen)): 159
- MIC MRSA (S. aureus 13709 (MRSA); Table 6): 2.9 µg/mL (≈ 7.89 µM)
- Selectivity S. pyogenes (Streptococcus pyogenes; IC50 (MCF10)/MIC (pathogen)): 19,250
- MIC S. pyogenes (Streptococcus pyogenes; Table 6): 0.024 µg/mL (≈ 0.0653 µM)
- IC50 (MCF-10 cells; Table 6): 462000 nM
- IC50 (MCF-10 cells; Table 8): 462000 nM
- IC50 (HepG2 cells): 494000 nM
- Solubility (Measured solubility): 80 µg/mL (≈ 218 µM)

SMILES: COc1cc([C@@H](C)C#Cc2c(C)nc(N)nc2N)cc(OC)c1OC [137(R), 2,4-Diamino-5-((R)-3-(3,4,5-trimethoxyphenyl)but-1-ynyl)-6-methylpyrimidine]
- IC50 (ChDHFR-TS; IC50 against ChDHFR): < 100000 nM
- IC50 (TgDHFR): < 100000 nM

SMILES: COc1cc([C@@H](C)C#Cc2c(C)nc(N)nc2N)cc(OC)c1OC (racemic) [Compound X, 6-methyl-5-[3-(3,4,5-trimethoxyphenyl)but-1-yn-1-yl]pyrimidine-2,4-diamine]
- IC50 (ChDHFR-TS; IC50 (ChDHFR), Table 4): 169 ± 6 nM
- IC50 (ChDHFR-TS; IC50 against ChDHFR): < 100000 nM
- IC50 (ChDHFR-TS; read-out: IC50 against ChDHFR): 38 nM
- IC50 (TgDHFR; read-out: IC50 against TgDHFR): < 100000 nM
- IC50 (CgDHFR; CgDHFR IC50, Table 3): 25 nM
- IC50 (CgDHFR; IC50 against CgDHFR): ≤ 25 nM
- MIC (C. glabrata; [3]): 21 µg/mL (≈ 61.3 µM)
- antifungal properties against C. glabrata (C. glabrata): exhibited antifungal properties

SMILES: COc1cc(CC#Cc2cnc(N)nc2N)cc(OC)c1OC [Compound 1, 5-[3-(3,4,5-trimethoxyphenyl)prop-1-yn-1-yl]pyrimidine-2,4-diamine]
- IC50 (ChDHFR-TS; IC50 against ChDHFR): < 100000 nM
- IC50 (TgDHFR): < 100000 nM
- IC50 (CgDHFR; CgDHFR IC50, Table 3): 33 nM
- Antifungal activity MIC (C. glabrata; C. glabrata, Inact: not active at 2 mM (~600 μg/mL)): Inact*

SMILES: COc1cc(-c2c(C(C)C)cccc2C(C)C)ccc1C(C)C#Cc1c(C)nc(N)nc1N (stereo not drawn) [Compound F26I, 5-[3-(3-methoxy-2′6′-diisopropylbiphenyl-4-yl)but-1-yn-1-yl]-6-methylpyrimidine-2,4-diamine]
- Selectivity Ratio (IC50 ChDHFR/IC50 hDHFR) (ChDHFR-TS; Table 4): 262
- IC50 (ChDHFR-TS; [4]): 16 nM
- IC50 (hDHFR; Table 4, read-out: IC50 (hDHFR)): 4200 ± 0.1 nM
- mammalian cell toxicity (mammalian cell lines): display mammalian cell toxcity

Reference: patent US8853228B2, “Heterocyclic analogs of propargyl-linked inhibitors of dihydrofolate reductase” (University of Connecticut, priority 2011, dated 2014)
